Experimental data published in US20170342499A1, “GENOMIC CLASSIFIER THAT PREDICTS RESPONSE TO MULTI-KINASE INHIBITOR TREATMENT INTRODUCTION” (Centre Léon-Bérard, priority 2014, published 2017).

Columns and labels:
CRC = assay: Response to conventional chemotherapy versus SUMSCAN prediction in CRC patients; format: in vivo, human; details: CRC patients (n = 21)
[1] = tested on: pretreated metastatic colorectal cancer (mCRC); details: cited from earlier work
[2] = tested on: imatinib and sunitinib refractory gastrointestinal stromal tumors (GIST); details: cited from earlier work

| SMILES | patients resistant to the chemotherapy regimen, n (% of 21) (CRC; SUMSCAN Predicted Resistant) | patients sensitive to the chemotherapy regimen, n (% of 21) (CRC; SUMSCAN Predicted Resistant) | patients resistant to the chemotherapy regimen, n (% of 21) (CRC; SUMSCAN Predicted Sensitive) | patients sensitive to the chemotherapy regimen, n (% of 21) (CRC; SUMSCAN Predicted Sensitive) | patients resistant to the chemotherapy regimen, n (% of 21) (CRC; Total) | patients sensitive to the chemotherapy regimen, n (% of 21) (CRC; Total) | improvement in PFS [1] | antitumor activity by nature of the KIT/or PDGFRA mutation ([2]; GIST) | improvement in PFS ([2]; imatinib and sunitinib refractory GIST) |
| --- | --- | --- | --- | --- | --- | --- | --- | --- | --- |
| CCc1c2c(nc3ccc(OC(=O)N4CCC(N5CCCCC5)CC4)cc13)-c1cc3c(c(=O)n1C2)COC(=O)[C@]3(O)CC [Irinotecan] | 2 (9.5%) | 7 (33.3%) | 3 (14.3%) | 9 (42.9%) | 5 (23.8%) | 16 (76.2%) | – | – | – |
| O=C1[O][Pt]2([NH][C@@H]3CCCC[C@H]3[NH]2)[O]C1=O [Oxaliplatin] | 2 (9.5%) | 7 (33.3%) | 6 (28.6%) | 6 (28.6%) | 8 (38.1%) | 13 (61.9%) | – | – | – |
| CNC(=O)c1cc(Oc2ccc(NC(=O)Nc3ccc(Cl)c(C(F)(F)F)c3)c(F)c2)ccn1 [Regorafenib] | – | – | – | – | – | – | 0.9 weeks | observed at the same level regardless of the nature of the KIT/or PDGFRA mutation | 4 months |
